In US4212862A, “O,O-Diaryl-1-acyloxy-2,2,2-trichloroethylphosphonates and fungicides based thereon” (priority 1978, dated 1980):
Values joined by “and” are separate entries in the source; they are usually repeats but may differ in a detail not shown here. Equal entries are not always repeated. Where two headings read alike, the source gives them in different places.

What was measured:
[1] = tested on: stalk rust of wheat (Puccinia graminis); assay type: in vivo
[2] = Acute peroral toxicity for warm-blooded animals (LD50, LD90); assay type: in vivo, white mice; details: mouse, in vivo, po, Table 2; peroral; read-out: LD50 for white mice
Experimental: Toxicity (LD50) was evaluated on males and females of white mice with peroral administration of the compounds. A portion of the test compound was mixed with the emulsifier Twin-20 and diluted with distilled water to the required working concentration. Administration of the preparation was effected by means of a metal probe and syringe directly into the stomach of test animals 2-3 hours after feeding. The tests were performed using several doses, 6 animals per each dose. Subsequent observation was effected for two weeks.

[3] = tested on: stalk rust (Puccinia graminis f. tritici); assay type: in vivo; details: in vivo

Row | SMILES | Percentage of injury lowered ([1]; in vivo) | LD50 at 336 h [2] [mg/kg] | other results
1 | CC(=O)OC(C(Cl)(Cl)Cl)P(=O)(Oc1cccc2ccccc12)Oc1cccc2ccccc12 (centres unmarked) [XLII] | 92% and 87% | > 1000 | –
2 | O=P(Oc1ccccc1)(Oc1ccccc1)C(O)C(Cl)(Cl)Cl (centres unmarked) [reference compound] | 71% and 61% | > 400 | –
3 | CCCCC(CC)C(=O)OC(C(Cl)(Cl)Cl)P(=O)(Oc1ccccc1C)Oc1ccccc1C (centres unmarked) [X] | – | > 1000 | –
4 | CCCC(=O)OC(C(Cl)(Cl)Cl)P(=O)(Oc1cccc2ccccc12)Oc1cccc2ccccc12 (centres unmarked) [XLIV] | 71% | > 1000 | –
5 | CC(=O)OC(C(Cl)(Cl)Cl)P(=O)(Oc1ccc(Cl)c(C)c1)Oc1ccc(Cl)c(C)c1 (centres unmarked) [XL] | 95% and 76% | > 1000 | –
6 | CCC(=O)OC(C(Cl)(Cl)Cl)P(=O)(Oc1cccc2ccccc12)Oc1cccc2ccccc12 (centres unmarked) [XLIII] | 89% and 72% | > 1000 | –
7 | CCCCC(CC)C(=O)OC(C(Cl)(Cl)Cl)P(=O)(Oc1cccc(C)c1)Oc1cccc(C)c1 (centres unmarked) [XVI] | 86% | > 1000 | –
8 | CCCC(=O)OC(C(Cl)(Cl)Cl)P(=O)(Oc1ccc(-c2ccccc2)cc1)Oc1ccc(-c2ccccc2)cc1 (centres unmarked) [XLVIII] | 67% | > 1000 | –
9 | CC(=O)OC(C(Cl)(Cl)Cl)P(=O)(Oc1ccc(Cl)cc1C)Oc1ccc(Cl)cc1C (centres unmarked) [XXXVIII] | 92% and 53% | > 500 | –
10 | COP(=O)(OC)C(OC(C)=O)C(Cl)(Cl)Cl (centres unmarked) [chloracetophos, O,O-dimethyl-1-acetoxy-2,2,2-trichloroethylphosphonate, reference compound] | – | > 1000 | Percentage of injury lowered ([1]; at a concentration of 0.02%, sprayed 3 days before inoculation): 10%; Percentage of injury lowered ([1]; at a concentration of 0.1%, sprayed 3 days before inoculation): 54%
11 | CC(=O)OC(C(Cl)(Cl)Cl)P(=O)(Oc1ccc(-c2ccccc2)cc1)Oc1ccc(-c2ccccc2)cc1 (centres unmarked) [XLVI] | – | > 1000 | –
12 | CCCCCCC(=O)OC(C(Cl)(Cl)Cl)P(=O)(Oc1ccc(F)cc1)Oc1ccc(F)cc1 (centres unmarked) [XXXV] | – | > 1000 | –
13 | CCCCC(CC)C(=O)OC(C(Cl)(Cl)Cl)P(=O)(Oc1ccc(F)cc1)Oc1ccc(F)cc1 (centres unmarked) [XXXVI] | – | > 1000 | –
14 | CCCCCCC(=O)OC(C(Cl)(Cl)Cl)P(=O)(Oc1ccc(-c2ccccc2)cc1)Oc1ccc(-c2ccccc2)cc1 (centres unmarked) [XLV] | 72% | > 1000 | –
15 | CCC(=O)OC(C(Cl)(Cl)Cl)P(=O)(Oc1ccc(-c2ccccc2)cc1)Oc1ccc(-c2ccccc2)cc1 (centres unmarked) [XLVII] | – | > 1000 | –
16 | CCCC(=O)OC(C(Cl)(Cl)Cl)P(=O)(Oc1ccc(F)cc1)Oc1ccc(F)cc1 (centres unmarked) [XXXIV] | 99% and 95% | – | Percentage of plants injured with rust, 1-st evaluation [3]: 0.5%; Percentage of plants injured with rust, 2-nd evaluation [3]: 7.4%; Weight of 1,000 grains [3]: 19.6 g; Yield [3]: 15.10 c/ha
17 | CC(=O)OC(C(Cl)(Cl)Cl)P(=O)(Oc1ccc(F)cc1)Oc1ccc(F)cc1 (centres unmarked) [XXXII] | 100% and 84% | > 1000 | –
18 | CCCC(=O)OC(C(Cl)(Cl)Cl)P(=O)(Oc1ccccc1C)Oc1ccccc1C (centres unmarked) [IX] | – | > 1000 | –
19 | Cc1cccc(OP(=O)(Oc2cccc(C)c2)C(OC(=O)c2ccccc2)C(Cl)(Cl)Cl)c1 (centres unmarked) [XVII] | – | > 1000 | –
20 | CCC(=O)OC(C(Cl)(Cl)Cl)P(=O)(Oc1ccc(Cl)cc1C)Oc1ccc(Cl)cc1C (centres unmarked) [XXXIX] | – | > 500 | –
21 | O=C(OC(C(Cl)(Cl)Cl)P(=O)(Oc1ccc(F)cc1)Oc1ccc(F)cc1)c1ccccc1 (centres unmarked) [XXXVII] | – | > 1000 | –
22 | Cc1ccccc1OP(=O)(Oc1ccccc1C)C(OC(=O)c1ccccc1)C(Cl)(Cl)Cl (centres unmarked) [XI] | – | > 1000 | Percentage of plants injured with rust, 1-st evaluation [3]: 0.5%; Percentage of plants injured with rust, 2-nd evaluation [3]: 8.0%; Weight of 1,000 grains [3]: 17.8 g; Yield [3]: 12.40 c/ha
23 | CCCCCCCCc1ccc(OP(=O)(Oc2ccc(CCCCCCCC)cc2)C(OC(=O)CC)C(Cl)(Cl)Cl)cc1 (centres unmarked) [XXV] | – | > 1000 | Percentage of plants injured with rust, 1-st evaluation [3]: 0.5%; Percentage of plants injured with rust, 2-nd evaluation [3]: 10.0%; Weight of 1,000 grains [3]: 16.0 g; Yield [3]: 11.10 c/ha
